The target of assay [1] is Human Full Length PARG (Homo sapiens (Human), UniProt Q86W56). The assay is described as follows: PARG in vitro enzyme assay (TR-FRET). In kind it is biochemical. The conditions noted are these: read-out: PARG_EC50_ENZYME. The method, boiled down: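 Full-length human PARG ([…]) incubated with ribosylated PARP substrate (4.5 nM) for 10 min at room temperature in Tris pH 7.4 buffer with EDTA, EGTA, DTT, KCl. Detection by TR-FRET using anti-6HIS XL665 (14 nM final) and streptavidin europium cryptate (0.75 nM final) after 60 min; Em665/Em620 ratio converted to percent inhibition.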
(Time-resolved FRET reads energy transfer from a long-lived donor to a nearby acceptor.)

In assay [2] the target is Human Full Length ARH3 (Homo sapiens (Human), UniProt Q9NX46). The assay is described as follows: ARH3 in vitro selectivity assay (TR-FRET). The assay is classed as biochemical. The conditions noted are these: read-out: ARH3 Biochem IC50. The protocol:
ARH3 In vitro selectivity assays were conducted in a total volume of 15 ul in a standard 384 well format. 5 ul of Human Full Length ARH3 (Enzo Life Sciences: ALX-201-292), used at a final reaction concentration of 17.5 nM, was added to 5 ul of Ribosylated PARP substrate (also produced internally by Astra Zeneca) at final reaction concentration of 4.5 nM in assay buffer (50 mM Tris pH7.4, 0.1 mg/ml BSA, 3 mM EDTA, 0.4 mM EGTA, 1 mM DTT, 0.01% Tween 20, 50 mM KCl). The reaction was incubated at room temperature for 30 minutes and then 5 ul detection reagent was added. Detection Reagent consists of 42 nM MAb Anti-6HIS XL665 (CisBio: 61HISXLB) and 2.25 nM Streptavidin Europium Cryptate (CisBio: 610SAKLB), both at 3× working stock concentrations (final concentrations of 14 nM and 0.75 nM respectively), in a detection buffer of 50 mM Tris pH7.4, BSA at 0.1 mg/ml and KF at 100 mM. Following incubation at room temperature for 60 minutes in the dark, TR-FRET signal was measured at Ex 340 and Em 665 and Em 620. A ratio was calculated as Em665/EM620×104 for each well and used to calculate percent inhibition for test compounds.

In assay [3] the target is PARG in HeLa cell line (Homo sapiens (Human), UniProt Q86W56). The assay is described as follows: PARG cell assay (nuclear PAR chains after MMS, immunofluorescence). Conditions: HeLa cells, MMS 50 μg/mL; read-out: PARG Cell IC50 Geomean. In kind it is cell-based. The method, boiled down:
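HeLa cells pre-dosed 1 h with compound (10-point dose response), then MMS 50 μg/mL for a further hour at 37 °C. Fixed cells immunostained with anti-PAR antibody plus Alexa Fluor 488 secondary and Hoechst. High-content imaging quantified nuclear PAR fluorescence intensity; inhibition maintains PAR chains.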

Assay [4] concerns the target Human High specific Activity PARP1 (Homo sapiens (Human), UniProt P09874). The assay is described as follows: PARP1 in vitro selectivity assay (histone PARylation, luminescence). In kind it is biochemical. The conditions noted are these: read-out: PARP1 Biochem IC50. The protocol: PARP1 In vitro selectivity assays were conducted as a 10 ul reaction volume in a NUNC Maxisorp 384-well assay plate pre-coated in-house with Histones. 5 ul of Human High specific Activity PARP1 (Trevigen: 4668-100-01) was used at a final reaction concentration of 0.02 units/ml in 1×PARP Buffer (Trevigen: 4671-096-02) with 5 ul of 1×PARP cocktail, which is a mixture of 10×PARP Cocktail (Trevigen: 4671-096-03), 10× Activate DNA (Trevigen: 4671-096-06) and 20×PARP Buffer (as above). The reaction was incubated at room temperature for 60 minutes to allow histones on the coated plate to become PARylated. The wells were then washed with PBS/0.1% Triton X100. PARP1 activity was then detected by measuring the extent of PARylation. Firstly, 10 ul of Streptavidin-HRP (Trevigen: 4800-30-06), diluted 1 in 250 in 1×PARG Assay Buffer (Trevigen: 4680-096-02), was added to each well and incubated at room temperature for 60 minutes. Secondly, following another wash with PBS/0.1% Triton X100, Peroxy Glow Reagents A and B (Trevigen: 4675-096-01 and 4675-096-02) were mixed in equal quantities immediately before use and 100 ul was added to each well. Luminescence signal was then measured immediately.

Human Full Length ARH3, sequence (Q9NX46 whole entry): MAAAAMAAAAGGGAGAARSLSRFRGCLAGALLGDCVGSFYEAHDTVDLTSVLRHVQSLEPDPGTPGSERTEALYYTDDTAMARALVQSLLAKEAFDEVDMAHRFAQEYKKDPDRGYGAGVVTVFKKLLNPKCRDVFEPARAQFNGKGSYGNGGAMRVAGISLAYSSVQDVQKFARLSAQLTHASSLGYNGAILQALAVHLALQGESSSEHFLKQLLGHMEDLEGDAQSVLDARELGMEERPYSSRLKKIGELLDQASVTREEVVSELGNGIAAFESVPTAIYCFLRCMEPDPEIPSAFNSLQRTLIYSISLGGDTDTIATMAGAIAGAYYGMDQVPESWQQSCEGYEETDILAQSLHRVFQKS
Human High specific Activity PARP1, sequence (P09874 whole entry): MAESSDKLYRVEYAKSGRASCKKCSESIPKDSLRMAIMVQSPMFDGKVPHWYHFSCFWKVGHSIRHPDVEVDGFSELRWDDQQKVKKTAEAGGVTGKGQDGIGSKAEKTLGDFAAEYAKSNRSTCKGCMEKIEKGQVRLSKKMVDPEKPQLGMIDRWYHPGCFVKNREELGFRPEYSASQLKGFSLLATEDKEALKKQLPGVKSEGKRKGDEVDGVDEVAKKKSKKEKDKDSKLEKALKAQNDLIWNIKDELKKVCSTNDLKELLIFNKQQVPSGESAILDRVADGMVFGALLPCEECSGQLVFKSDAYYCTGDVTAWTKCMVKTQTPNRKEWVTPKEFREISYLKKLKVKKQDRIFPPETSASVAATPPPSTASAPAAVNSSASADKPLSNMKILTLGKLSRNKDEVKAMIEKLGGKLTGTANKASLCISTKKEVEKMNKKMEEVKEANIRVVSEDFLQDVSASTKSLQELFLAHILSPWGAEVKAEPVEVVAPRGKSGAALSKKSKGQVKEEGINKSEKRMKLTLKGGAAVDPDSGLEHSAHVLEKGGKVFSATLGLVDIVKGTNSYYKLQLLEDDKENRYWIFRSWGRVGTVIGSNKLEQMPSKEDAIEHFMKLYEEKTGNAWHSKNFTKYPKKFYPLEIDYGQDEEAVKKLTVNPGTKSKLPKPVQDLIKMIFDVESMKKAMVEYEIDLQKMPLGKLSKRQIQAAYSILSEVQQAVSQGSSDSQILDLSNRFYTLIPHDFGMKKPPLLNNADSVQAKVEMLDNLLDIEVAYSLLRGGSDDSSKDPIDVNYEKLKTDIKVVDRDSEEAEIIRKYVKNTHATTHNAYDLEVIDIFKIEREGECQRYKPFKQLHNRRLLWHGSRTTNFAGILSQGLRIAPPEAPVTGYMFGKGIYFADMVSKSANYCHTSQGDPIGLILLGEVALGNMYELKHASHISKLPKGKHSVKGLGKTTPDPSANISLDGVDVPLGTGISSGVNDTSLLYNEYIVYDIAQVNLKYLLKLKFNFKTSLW
PARG in HeLa cell line, sequence (Q86W56 whole entry): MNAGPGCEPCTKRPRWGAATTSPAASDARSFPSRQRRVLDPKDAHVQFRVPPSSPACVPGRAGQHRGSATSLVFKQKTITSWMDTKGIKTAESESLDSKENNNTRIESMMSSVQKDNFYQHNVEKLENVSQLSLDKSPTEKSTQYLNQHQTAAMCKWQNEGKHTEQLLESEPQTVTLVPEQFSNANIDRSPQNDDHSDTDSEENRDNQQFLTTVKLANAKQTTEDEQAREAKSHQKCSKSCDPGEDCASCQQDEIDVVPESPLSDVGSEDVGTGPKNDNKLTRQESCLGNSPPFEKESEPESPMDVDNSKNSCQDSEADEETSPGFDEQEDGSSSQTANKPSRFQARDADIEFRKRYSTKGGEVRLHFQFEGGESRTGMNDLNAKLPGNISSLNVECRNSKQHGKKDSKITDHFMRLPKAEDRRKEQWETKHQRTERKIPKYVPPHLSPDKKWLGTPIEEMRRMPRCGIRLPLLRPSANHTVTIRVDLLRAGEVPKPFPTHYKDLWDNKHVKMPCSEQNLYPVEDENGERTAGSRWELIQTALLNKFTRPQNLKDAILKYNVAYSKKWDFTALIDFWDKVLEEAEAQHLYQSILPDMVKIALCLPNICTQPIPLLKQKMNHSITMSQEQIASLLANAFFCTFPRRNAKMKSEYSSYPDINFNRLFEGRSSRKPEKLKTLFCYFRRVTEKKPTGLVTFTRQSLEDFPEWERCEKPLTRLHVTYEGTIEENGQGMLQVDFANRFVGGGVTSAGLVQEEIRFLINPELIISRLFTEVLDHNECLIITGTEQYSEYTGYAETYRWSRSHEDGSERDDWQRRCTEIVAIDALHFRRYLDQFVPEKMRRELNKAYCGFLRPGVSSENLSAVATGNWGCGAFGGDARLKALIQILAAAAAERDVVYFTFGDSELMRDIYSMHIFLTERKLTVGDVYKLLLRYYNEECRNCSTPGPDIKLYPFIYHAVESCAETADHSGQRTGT
Human Full Length PARG, sequence (Q86W56 whole entry): as above

As a reminder, the IC50 is the concentration needed to halve the response being measured. As for `CC1(NS(=O)(=O)c2ccc3c(C(=O)C4CC4)cn(-c4nnc(C(F)F)s4)c3c2)CC1` [Example 145, 3-(Cyclopropanecarbonyl)-1-[5-(difluoromethyl)-1,3,4-thiadiazol-2-yl]-N-(1-methylcyclopropyl)indole-6-sulfonamide], the EC50 in assay [1] came to 134 nM. Also, the IC50 in assay [2] was more than 150000 nM; in assay [3], 46.6 nM; in assay [4], more than 150000 nM.
With `Cn1c(=O)n(-c2nnc(C(F)F)s2)c2cc(S(=O)(=O)NC3(CF)CC3)c(F)cc21` [Example 174, 3-[5-(difluoromethyl)-1,3,4-thiadiazol-2-yl]-6-fluoro-N-[1-(fluoromethyl)cyclopropyl]-1-methyl-2-oxo-benzimidazole-5-sulfonamide], the EC50 in assay [1] is 91 nM. Moreover, the IC50 was more than 50000 nM in assay [2], 41 nM in assay [3] and more than 150000 nM in assay [4].
The corresponding values for `Cc1nnc(-n2c(=O)n(Cc3ccc(F)cc3)c3ccc(S(=O)(=O)NC4(C)CC4)cc32)s1` [Example 73] are 636 nM, more than 100000 nM, 107 nM and more than 150000 nM.
The corresponding values for `Cc1nc(C)c(Cn2c(=O)n(-c3ncns3)c3cc(S(=O)(=O)NC4(C)CC4)ccc32)s1` [Example 90] are 40 nM, more than 100000 nM, 63 nM and more than 150000 nM.

The record behind these values is patent US10508086B2 (CANCER RESEARCH TECHNOLOGY LIMITED, priority 2014, dated 2019).
